{
  "source": "patent US9085756B2",
  "about": "“Drug screening using islet cells and islet cell progenitors from human embryonic stem cells” (Asterias Biotherapeutic, Inc., priority 2001, dated 2015)",
  "tested_on": "hES cells",
  "assay": "Hepatocyte differentiation of hES cells, morphology",
  "type": "cell-based, human",
  "details": "4 days in medium containing butyrate (after 1% DMSO pre-differentiation)",
  "excerpt": "Undifferentiated hES cells were differentiated into cells having characteristics of human hepatocytes using a strategy to initiate a global differentiation process using DMSO in a subconfluent culture. The cells are then induced to form hepatocyte-like cells by the addition of Na-butyrate.\nBriefly, the hES cells were maintained in undifferentiated culture conditions for 2-3 days after splitting. At this time, the cells were 50 to 60% confluent and the medium was exchanged with unconditioned SR medium containing 1% DMSO (Step II). The cultures were fed daily with SR medium for 4 days and then exchanged into unconditioned SR medium containing both 1% DMSO and […] Na-butyrate, with which they were fed daily for 6 days (Step III). They were then replated onto collagen, and cultured in a hepatocyte maturation medium containing a cocktail of hepatocyte-friendly growth factors (Step IV).",
  "data": [
    {"smiles": "CCCC(=O)[O-].[Na+]", "note": "[butyrate, sodium n-butyrate]", "values": [
      {"measurement": "Cells in the culture with large nuclei and granular cytoplasm", "value": "more than 80%"},
      {"measurement": "Cells in the culture with large nuclei and granular cytoplasm", "setting": "listed as sodium n-butyrate", "value": "More than 80%"}
    ]}
  ]
}
